36 compounds from patent publication US8063055B2, “Substituted pyridone compounds and methods of use” (Amgen Inc., priority 2007, dated 2011) can be followed below.

Test [1] deals with T1, c-kit kinase enzyme (Homo sapiens, UniProt P10721).
T1 construct: (catalytic domain, N-terminal GST tagged, unphosphorylated)
The test can be described thus: C-kit Homogeneous Time Resolved Fluorescent (HTRF) kinase assay. Type of test: biochemical.

In test [2] the test system is SCF-stimulated UT-7 cells. Particulars: Homo sapiens.
Description: SCF and GM-CSF Stimulated UT7 Proliferation/Survival Assay:
The purpose of this assay is to test the general anti-proliferative/cytotoxic effect of small molecule compounds on SCF or GM-CSF-stimulated UT-7 cells. Preventing SCF stimulated proliferation/survival is consistent with an on-mechanism effect whereas inhibition of GM-CSF driven proliferation/survival is indicative of off-target effects. UT-7 is a factor dependent human megakaryoblastic leukemia cell line that can be grown in either IL-3, GM-CSF, EPO or SCF (these cells have been confirmed to carry wild type c-kit receptor). Cells are maintained in growth media (IMDM, 10% HI-FBS, 1×PGS, 1 ng/mL GM-CSF). […] Small molecule compounds are first diluted in 100% DMSO, then diluted 1:4 in RT assay media. […] The treated cells are incubated in a 37° C. humidified incubator with 5% CO2 for 3 days. The amount of ATP is then measured as a surrogate marker for cell viability. […] The amount of SCF or GM-CSF stimulated viable cells in the presence of compound compared with in the presence of vehicle alone (HI control) is calculated using the formula: % control (POC)=(cpd−average LO)/(average HI−average LO)*100. Data (consisting of POC and inhibitor concentration in μM) is fitted to a 4-parameter equation (y=A+((B−A)/(1+((x/C)^D))), where A is the minimum y (POC) value, B is the maximum y (POC), C is the x (cpd concentration) at the point of inflection and D is the slope factor) using a Levenburg-Marquardt non-linear regression algorithm.
Setting [3] is: HTRF Fret enzyme assay data, c-kit catalytic domain, biotinylated Her-2 peptide substrate, ATP.
Where [4] appears, read: UT7, 72 h, read-out: UT7 Proliferation cell assay data.
The mark [5] stands for this setting: c-kit catalytic domain, biotinylated Her-2 peptide substrate, ATP, read-out: HTRF Fret enzyme assay data.
Setting [6] is: UT7, read-out: average IC50 value in the SCF stimulated UT7 proliferation and survival assay.

Structures are written as SMILES. Read-outs that look alike come from different tables or passages of the source.

T1 sequence (P10721 589-937 limits assumed): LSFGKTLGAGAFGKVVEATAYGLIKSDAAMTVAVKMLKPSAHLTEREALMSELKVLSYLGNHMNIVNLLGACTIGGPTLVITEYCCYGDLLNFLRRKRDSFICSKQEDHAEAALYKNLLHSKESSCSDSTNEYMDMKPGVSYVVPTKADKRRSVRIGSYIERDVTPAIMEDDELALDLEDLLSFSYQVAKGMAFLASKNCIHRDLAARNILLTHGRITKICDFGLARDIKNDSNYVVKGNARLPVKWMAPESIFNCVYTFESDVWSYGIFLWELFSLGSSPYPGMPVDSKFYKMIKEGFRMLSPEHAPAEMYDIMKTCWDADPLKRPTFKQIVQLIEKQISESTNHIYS

For `Cc1ccc(-n2ccc(C)c(-c3ccc4nc(N)ncc4c3)c2=O)cc1C` [Example 13, 3-(2-amino-6-quinazolinyl)-1-(3,4-dimethylphenyl)-4-methyl-2(1H)-pyridinone], the IC50 was 3.67 nM in test [1] (setting [3]) and 5.4 nM in test [2] (setting [4]). The corresponding values for `Cc1ccn(-c2ccc(F)cc2)c(=O)c1-c1ccc2nc(N)ncc2c1` [Example 33, 3-(2-aminoquinazolin-6-yl)-1-(4-fluorophenyl)-4-methylpyridin-2(1H)-one] are 63 nM and 107 nM. As to `Cc1ccc(-n2ccc(C)c(-c3ccc4nc(N)ncc4c3)c2=O)cc1F` [Example 6, 3-(2-aminoquinazolin-6-yl)-1-(3-fluoro-4-methylphenyl)-4-methylpyridin-2(1H)-one], the figures for the IC50 in test [1] (setting [5]) and in test [2] (setting [4]) were 40.1 nM and 12.1 nM, respectively. As for `Cc1ccn(CCC2CCCC2)c(=O)c1-c1ccc2nc(N)ncc2c1` [Example 52, 3-(2-aminoquinazolin-6-yl)-1-(2-cyclopentylethyl)-4-methylpyridin-2(1H)-one], the IC50 in test [1] (setting [3]) is 0.818 nM; in test [2] (setting [4]), 24 nM; in test [2] (setting [6]), not above 1000 nM. The corresponding values for `CC(C)=CCn1ccc(C)c(-c2ccc3nc(N)ncc3c2)c1=O` [Example 54, 3-(2-aminoquinazolin-6-yl)-4-methyl-1-(3-methylbut-2-enyl)pyridin-2(1H)-one] are 23.9 nM, 12 nM and not above 1000 nM. For the compound `Cc1ccn(-c2ccc3[nH]ccc3c2)c(=O)c1-c1ccc2nc(N)ncc2c1` [Example 18, 3-(2-amino-6-quinazolinyl)-4-methyl-1-(1H-indol-5-yl)-2(1H)-pyridinone], the values for the IC50 in test [1] (setting [3]) and in test [2] (setting [4]) were 8.65 nM and 28.8 nM, respectively. `CC(=O)c1ccc(-n2ccc(C)c(-c3ccc4nc(N)ncc4c3)c2=O)cc1` [Example 28, 1-(4-acetylphenyl)-3-(2-aminoquinazolin-6-yl)-4-methylpyridin-2(1H)-one]: the IC50 in test [1] (setting [5]) is 20 nM.

For `COc1cc(-n2ccc(C)c(-c3ccc4nc(N)ncc4c3)c2=O)cc(C(F)(F)F)c1` [Example 11, 3-(2-aminoquinazolin-6-yl)-1-(3-methoxy-5-(trifluoromethyl)phenyl)-4-methylpyridin-2(1H)-one], the IC50 stood at 11.1 nM in test [1] (setting [3]) and 58.8 nM in test [2] (setting [4]). On to `Cc1ccn(-c2cc(Cl)cc(Cl)c2)c(=O)c1-c1ccc2nc(N)ncc2c1` [Example 46, 3-(2-aminoquinazolin-6-yl)-1-(3,5-dichlorophenyl)-4-methylpyridin-2(1H)-one], for which the IC50 was found to be 44 nM in test [1] (setting [3]) and 35 nM in test [2] (setting [4]). In the case of `Cc1ccn(-c2ccc3c(c2)NCC3(C)C)c(=O)c1-c1ccc2nc(N)ncc2c1` [Example 15, 3-(2-amino-6-quinazolinyl)-1-(3,3-dimethyl-2,3-dihydro-1H-indol-6-yl)-4-methyl-2(1H)-pyridinone], the IC50 stood at 4.7 nM in test [1] (setting [3]) and 19.4 nM in test [2] (setting [4]). Consider `Cc1ccn(-c2ccc(N3CCOCC3)cc2)c(=O)c1-c1ccc2nc(N)ncc2c1` [Example 34, 3-(2-aminoquinazolin-6-yl)-4-methyl-1-(4-morpholinophenyl)pyridin-2(1H)-one], for which the IC50 in test [1] (setting [5]) was found to be 13 nM; in test [2] (setting [4]), 72 nM. `Cc1ccn(-c2cccc(C(F)(F)F)c2)c(=O)c1-c1ccc2nc(N)ncc2c1` [Example 20, 3-(2-amino-6-quinazolinyl)-4-methyl-1-(3-(trifluoromethyl)phenyl)-2(1H)-pyridinone]: the IC50 in test [2] (setting [4]) was found to be 27.9 nM. As to `Cc1ccn(-c2ccc3ncccc3c2)c(=O)c1-c1ccc2nc(N)ncc2c1` [Example 16, 3-(2-amino-6-quinazolinyl)-4-methyl-1-(6-quinolinyl)-2(1H)-pyridinone], the IC50 in test [1] (setting [3]) was 5.29 nM; in test [2] (setting [4]), 56.8 nM.

Consider `Cc1ccn(-c2ccc(N3CCN(C(=O)OC(C)(C)C)CC3)cc2)c(=O)c1-c1ccc2nc(N)ncc2c1` [Example 36, tert-butyl 4-(4-(3-(2-aminoquinazolin-6-yl)-4-methyl-2-oxopyridin-1(2H)-yl)phenyl)piperazine-1-carboxylate], for which, in test [1] (setting [3]), the IC50 is 1370 nM.

`Cc1ccn(CC(C)C)c(=O)c1-c1ccc2nc(N)ncc2c1` [Example 49, 3-(2-aminoquinazolin-6-yl)-1-isobutyl-4-methylpyridin-2(1H)-one]: the IC50 in test [1] (setting [3]) is 2250 nM. Turning to `CC(=O)N1CC(C)(C)c2ccc(-n3ccc(C)c(-c4ccc5nc(N)ncc5c4)c3=O)cc21` [Example 19, 1-(1-acetyl-3,3-dimethyl-2,3-dihydro-1H-indol-6-yl)-3-(2-amino-6-quinazolinyl)-4-methyl-2(1H)-pyridinone], the results for the IC50 in test [1] (setting [3]) and in test [2] (setting [4]) were 9.75 nM and 226 nM, respectively.

On to `Cc1ccn(CCCC(C)C)c(=O)c1-c1ccc2nc(N)ncc2c1` [Example 61, 3-(2-aminoquinazolin-6-yl)-4-methyl-1-(4-methylpentyl)pyridin-2(1H)-one], for which the IC50 was 1.12 nM in test [1] (setting [3]), 4 nM in test [2] (setting [4]) and not above 1000 nM in test [2] (setting [6]). On to `Cc1ccn(CCC2CC2)c(=O)c1-c1ccc2nc(N)ncc2c1` [Example 59, 3-(2-aminoquinazolin-6-yl)-1-(2-cyclopropylethyl)-4-methylpyridin-2(1H)-one], for which the IC50 in test [1] (setting [3]) was determined as 78.9 nM; in test [2] (setting [4]), 28 nM. `COCCn1ccc(C)c(-c2ccc3nc(N)ncc3c2)c1=O` [Example 56, 3-(2-aminoquinazolin-6-yl)-1-(2-methoxyethyl)-4-methylpyridin-2(1H)-one] showed an IC50 in test [1] (setting [3]) of 2230 nM. Regarding `COc1ccc(-n2ccc(C)c(-c3ccc4nc(N)ncc4c3)c2=O)cc1` [Example 31, 3-(2-aminoquinazolin-6-yl)-1-(4-methoxyphenyl)-4-methylpyridin-2(1H)-one], the IC50 in test [1] (setting [5]) amounted to 17 nM. On to `Cc1ccn(-c2ccc3c(c2)CCO3)c(=O)c1-c1ccc2nc(N)ncc2c1` [Example 17, 3-(2-amino-6-quinazolinyl)-1-(2,3-dihydro-1-benzofuran-5-yl)-4-methyl-2(1H)-pyridinone], for which the IC50 in test [1] (setting [3]) was 7.58 nM; in test [2] (setting [4]), 15.1 nM.

With `CCCCn1ccc(C)c(-c2ccc3nc(N)ncc3c2)c1=O` [Example 53, 3-(2-aminoquinazolin-6-yl)-1-butyl-4-methylpyridin-2(1H)-one], in test [1] (setting [3]), the IC50 is 118 nM.

For the compound `Cc1ccn(-c2ccc(C(C)C)cc2)c(=O)c1-c1ccc2nc(N)ncc2c1` [Example 27, 3-(2-aminoquinazolin-6-yl)-1-(4-isopropylphenyl)-4-methylpyridin-2(1H)-one], the IC50 in test [1] (setting [3]) came out at 2 nM; in test [2] (setting [4]) it was 5 nM. In the case of `Cc1ccn(-c2ccc(Cl)cc2)c(=O)c1-c1ccc2nc(N)ncc2c1` [Example 32, 3-(2-aminoquinazolin-6-yl)-1-(4-chlorophenyl)-4-methylpyridin-2(1H)-one], the IC50 turned out to be 20 nM in test [1] (setting [5]) and 14 nM in test [2] (setting [4]).

Take `COc1cccc(-n2ccc(C)c(-c3ccc4nc(N)ncc4c3)c2=O)c1` [Example 22, 3-(2-amino-6-quinazolinyl)-4-methyl-1-(3-(methyloxy)phenyl)-2(1H)-pyridinone]: the values for the IC50 in test [1] (setting [5]) and in test [2] (setting [4]) were 65.3 nM and 27.7 nM, respectively. On the same counts, the results for `CCOC(=O)c1ccc(-n2ccc(C)c(-c3ccc4nc(N)ncc4c3)c2=O)cc1` [Example 29, ethyl 4-(3-(2-aminoquinazolin-6-yl)-4-methyl-2-oxopyridin-1(2H)-yl)benzoate] are 17 nM and 66 nM. Turning to `Cc1ccn(-c2ccc(-c3ncco3)cc2)c(=O)c1-c1ccc2nc(N)ncc2c1` [Example 7, 3-(2-aminoquinazolin-6-yl)-4-methyl-1-(4-(oxazol-2-yl)phenyl)pyridin-2(1H)-one], the IC50 in test [1] (setting [3]) was determined as 21.6 nM; in test [2] (setting [4]), 15.5 nM. On the same counts, the results for `CCC(C)CCn1ccc(C)c(-c2ccc3nc(N)ncc3c2)c1=O` (stereo not shown) [Example 58, 3-(2-aminoquinazolin-6-yl)-4-methyl-1-(3-methylpentyl)pyridin-2(1H)-one] are 2.51 nM and 9 nM. For the compound `Cc1ccn(CC2CCCCC2)c(=O)c1-c1ccc2nc(N)ncc2c1` [Example 47, 3-(2-aminoquinazolin-6-yl)-1-(cyclohexylmethyl)-4-methylpyridin-2(1H)-one], the IC50 in test [1] (setting [3]) was found to be 132 nM. Turning to `Cc1ccn(-c2ccc(Cl)c(F)c2)c(=O)c1-c1ccc2nc(N)ncc2c1` [Example 44, 3-(2-aminoquinazolin-6-yl)-1-(4-chloro-3-fluorophenyl)-4-methylpyridin-2(1H)-one], the IC50 in test [1] (setting [5]) was found to be 59.7 nM. Take `CCCn1ccc(C)c(-c2ccc3nc(N)ncc3c2)c1=O` [Example 50, 3-(2-aminoquinazolin-6-yl)-4-methyl-1-propylpyridin-2(1H)-one]: the IC50 is 315 nM in test [1] (setting [3]) and not above 1000 nM in test [1] (average IC50 value, inhibition of the c-kit kinase enzyme in a human HTRF assay, 1.0 uM or less). The compound `COC(=O)Cn1ccc(C)c(-c2ccc3nc(N)ncc3c2)c1=O` [Example 51, methyl 2-(3-(2-aminoquinazolin-6-yl)-4-methyl-2-oxopyridin-1(2H)-yl)acetate] displayed an IC50 in test [1] (setting [3]) of 1190 nM. On the same count and under the same terms, under `CCOC(=O)CNc1ccc(-n2ccc(C)c(-c3ccc4nc(N)ncc4c3)c2=O)cc1` [Example 37, ethyl 2-(4-(3-(2-aminoquinazolin-6-yl)-4-methyl-2-oxopyridin-1(2H)-yl)phenylamino)acetate] stands 181 nM. `Cc1ccn(CC2CCC2)c(=O)c1-c1ccc2nc(N)ncc2c1` [Example 48, 3-(2-aminoquinazolin-6-yl)-1-(cyclobutylmethyl)-4-methylpyridin-2(1H)-one] came in with an IC50 in test [1] (setting [3]) of 1410 nM. Still for that read-out and setting: under `Cc1ccn(CCN(C)C)c(=O)c1-c1ccc2nc(N)ncc2c1` [Example 55, 3-(2-aminoquinazolin-6-yl)-1-(2-(dimethylamino)ethyl)-4-methylpyridin-2(1H)-one] stands 1580 nM. On to `Cc1ccn(CCn2cccn2)c(=O)c1-c1ccc2nc(N)ncc2c1` [Example 60, 1-(2-(1H-pyrazol-1-yl)ethyl)-3-(2-aminoquinazolin-6-yl)-4-methylpyridin-2(1H)-one], for which, in test [1] (setting [3]), the IC50 worked out at 176 nM.
